For eleven compounds, IC50 results are on record in patent publication US11021515B2, “Therapeutically active compounds and their methods of use” (Agios Pharmaceuticals, Inc., priority 2013, dated 2021).

For orientation: IC50 means the concentration needed to halve the response being measured.

For one assay, the system named is U87MG cells. Kind of assay: Cellular assay, inhibition of 2-HG production in U87MG cells. The class given is cell-based. The note with it: Homo sapiens, U-87 MG, 48 h. As for the experimental part:
Cells (HT1080 or U87MG) are grown in T125 flasks in DMEM containing 10% FBS, 1× penicillin/streptomycin and 500 ug/mL G418 (present in U87MG cells only). They are harvested by trypsin and seeded into 96 well white bottom plates at a density of 5000 cell/well in 100 ul/well in DMEM with 10% FBS. […] Cells are incubated overnight at 37° C. in 5% CO2. The next day test compounds are made up at 2× the final concentration and 100 ul are added to each cell well. The final concentration of DMSO is 0.2% and the DMSO control wells are plated in row G. The plates are then placed in the incubator for 48 hours. […] The cell plate is placed back in the incubator for another 24 hours. At 72 hours post compound addition, 10 mL/plate of Promega Cell Titer Glo reagent is thawed and mixed. The cell plate is removed from the incubator and allowed to equilibrate to room temperature. Then 100 ul of Promega Cell Titer Glo reagent is added to each well of media. The cell plate is then placed on an orbital shaker for 10 minutes and then allowed to sit at room temperature for 20 minutes. The plate is then read for luminescence with an integration time of 500 ms.

Another assay addresses IDH1 R132H (Homo sapiens (Human), UniProt O75874, R132H). Kind of assay: In vitro NADPH depletion assay for IDH1m inhibitors (R132H). The class given is biochemical. The note with it: IDH1 R132H enzyme, read-out: IDH R132H IC50. The procedure:
(§1) A test compound is prepared as 10 mM stock in DMSO and diluted to 50× final concentration in DMSO, for a 50 μl reaction mixture. IDH enzyme activity converting alpha-ketoglutarate to 2-hydroxyglutaric acid is measured using a NADPH depletion assay. In the assay the remaining cofactor is measured at the end of the reaction with the addition of a catalytic excess of diaphorase and resazurin, to generate a fluorescent signal in proportion to the amount of NADPH remaining. […] The reaction is started with the addition of […] Substrate Mix ([…] NADPH, 5 mM alpha-ketoglutarate, in Assay Buffer) and the mixture is incubated for 90 minutes at room temperature.

Another assay deals with IDH1 R132C (Homo sapiens (Human), UniProt O75874, R132C). Kind of assay: In vitro NADPH depletion assay for IDH1m inhibitors (R132C). To be noted: IDH1 R132C enzyme, read-out: IDH R132C IC50. The class given is biochemical. The procedure: as §1
The concentration of NADPH and alpha-ketoglutarate in the Substrate Buffer is 20 μM and 1 mM, respectively.

SMILES strings stand for the structures. Where only a bound is given, the exact number is not on record here.

Chain of IDH1 R132C (O75874 whole entry R132C): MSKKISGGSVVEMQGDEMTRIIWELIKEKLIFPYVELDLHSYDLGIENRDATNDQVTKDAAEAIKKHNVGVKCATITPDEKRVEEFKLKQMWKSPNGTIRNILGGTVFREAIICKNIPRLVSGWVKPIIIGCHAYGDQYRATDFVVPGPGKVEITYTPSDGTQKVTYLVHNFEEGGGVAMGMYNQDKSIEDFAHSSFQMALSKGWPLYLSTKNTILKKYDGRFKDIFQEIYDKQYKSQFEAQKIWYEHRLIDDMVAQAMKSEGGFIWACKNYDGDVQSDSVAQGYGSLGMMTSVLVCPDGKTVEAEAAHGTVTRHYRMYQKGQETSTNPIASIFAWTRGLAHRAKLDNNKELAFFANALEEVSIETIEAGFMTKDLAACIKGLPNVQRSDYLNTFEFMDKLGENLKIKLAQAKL
Chain of IDH1 R132H (O75874 whole entry R132H): as the sequence (O75874 whole entry R132C) above, with C132H counted along it

Regarding `CS(=O)(=O)c1cc(F)cc(N(C(=O)[C@@H]2CCC(=O)N2c2cc(C#N)ccn2)C(C(=O)NC2CCC(F)(F)CC2)c2ccccc2Cl)c1` (mixture of isomers) [Compound 105, (2S)—N-(1-(2-Chlorophenyl)-2-((4,4-difluorocyclohexyl)amino)-2-oxoethyl)-1-(4-cyanopyridin-2-yl)-N-(3-fluoro-5-(methylsulfonyl)phenyl)-5-oxopyrrolidine-2-carboxamide], in the assay with U87MG cells, the IC50 is under 100 nM.
Consider `CS(=O)(=O)c1cc(F)cc(N(C(=O)[C@@H]2CCC(=O)N2c2cc(C#N)ccn2)C(C(=O)NC2CC(F)(F)C2)c2ccccc2Cl)c1` (mixture of isomers) [Compound 110, (2S)—N-(1-(2-Chlorophenyl)-2-((3,3-difluorocyclobutyl)amino)-2-oxoethyl)-1-(4-cyanopyridin-2-yl)-N-(3-fluoro-5-(methylsulfonyl)phenyl)-5-oxopyrrolidine-2-carboxamide], for which the IC50 in the assay on U87MG cells, at IDH1 R132H and on IDH1 R132C was under 100 nM each time.
The compound `O=C(NC1CC(F)(F)C1)[C@H](c1ccccc1Cl)N(C(=O)[C@@H]1CCC(=O)N1c1ccccn1)c1cccc(F)c1` [Compound 5] came in with an IC50 in the assay with U87MG cells of 100 to 500 nM.
With `O=C(NC1CC(F)(F)C1)[C@H](c1ccccc1Cl)N(C(=O)[C@@H]1CCC(=O)N1c1cccc(F)n1)c1cccc(F)c1` [Compound 11], on IDH1 R132C, the IC50 was in the range of 100 to 500 nM.
`O=C(NC1CC(F)(F)C1)[C@H](c1ccccc1Cl)N(C(=O)[C@@H]1CCC(=O)N1c1nccc2ccccc12)c1cccc(F)c1` [Compound 16]: the IC50 on IDH1 R132H and at IDH1 R132C was 100 to 500 nM each time.
In the case of `O=C(NC1CC(F)(F)C1)[C@H](c1ccccc1Cl)N(C(=O)[C@@H]1CCC(=O)N1c1cnccn1)c1cccc(F)c1` [Compound 18], the IC50 in the assay on U87MG cells was under 100 nM.
Same read-out and setting: then `O=C(NC1CC(F)(F)C1)[C@H](c1ccccc1Cl)N(C(=O)[C@@H]1CCC(=O)N1c1ccccc1)c1cccc(F)c1` [Compound 23], with 100 to 500 nM; and `N#Cc1ccnc(N2C(=O)OC[C@H]2C(=O)N(c2cccc(F)c2)[C@H](C(=O)NC2CCC(F)(F)CC2)c2ccccc2Cl)c1` [Compound 78, (S)—N—((S)-1-(2-Chlorophenyl)-2-((4,4-difluorocyclohexyl)amino)-2-oxoethyl)-3-(4-cyano-pyridin-2-yl)-N-(3-fluorophenyl)-2-oxooxazolidine-4-carboxamide], with under 100 nM; and `CCOC(=O)CN1C[C@@H](C(=O)N(c2cccc(F)c2)[C@H](C(=O)NC2CC(F)(F)C2)c2ccccc2Cl)N(c2cc(C#N)ccn2)C1=O` [Compound 94, Ethyl 2-((4S)-4-((1-(2-chlorophenyl)-2-((3,3-difluorocyclobutyl)amino)-2-oxoethyl)(3-fluorophenyl)carbamoyl)-3-(4-cyanopyridin-2-yl)-2-oxoimidazolidin-1-yl)acetate], with under 100 nM.
As for `CS(=O)(=O)c1cc(F)cc(N(C(=O)[C@@H]2CCC(=O)N2c2nccc(C#N)n2)[C@H](C(=O)NC2CC(F)(F)C2)c2ccccc2Cl)c1` [Compound 109, (S)—N—((S)-1-(2-Chlorophenyl)-2-((3,3-difluorocyclobutyl)amino)-2-oxoethyl)-1-(4-cyanopyrimidin-2-yl)-N-(3-fluoro-5-(methylsulfonyl)phenyl)-5-oxopyrrolidine-2-carboxamide], the IC50 with U87MG cells was 100 to 500 nM.
Same read-out and setting: then `N#Cc1ccnc(N2C(=O)CC[C@H]2C(=O)N(c2cccc(C3(O)CC3)c2)[C@H](C(=O)NC2CC(F)(F)C2)c2ccccc2Cl)c1` [Compound 140, (S)—N—((S)-1-(2-Xhlorophenyl)-2-(3,3-difluorocyclobutylamino)-2-oxoethyl)-1-(4-cyanopyridin-2-yl)-N-(3-(1-hydroxycyclopropyl)phenyl)-5-oxopyrrolidine-2-carboxamide], with under 100 nM.
